Measurements: patent US10123993B2, “Cyclic ureas as inhibitors of rock” (BRISTOL-MYERS SQUIBB COMPANY, priority 2015, dated 2018)
Structures can show the parent of a compound that is named as a salt. Where two headings read alike, the source gives them in different places.

How the values were obtained:
[1] = test system: spontaneously hypertensive rat, renal hypertensive rat and deoxycortisone acetate salt hypertensive rat models; conditions: cited from earlier work
[2] = test system: neointimal formation in rats; conditions: cited from earlier work
Dahl salt-sensitive rats = conditions: rat, in vivo; cited from earlier work
[3] = test system: IL-1 beta-induced coronary stenosis; conditions: long term treatment; cited from earlier work
rat stroke model = conditions: in vivo; cited from earlier work
ROCK2 = ROCK2 (Homo sapiens, UniProt O75116); assay: ROCK2 kinase inhibition assay (Caliper LABCHIP, FITC peptide substrate); assay type: biochemical; conditions: 5 μM ATP, 1.5 μM peptide substrate; value ranges
How it was run: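 Dose-response curves gave IC50 from inhibition of peptide phosphorylation, measured by LabChip separation after EDTA stop. Reactions used 1.5 μM FITC-labelled peptide, 5 μM ATP, 20 mM HEPES pH 7.5 with MgCl2, Brij-35, DTT, and under 2% DMSO.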

Sequence of ROCK2 (O75116 whole entry, species assumed): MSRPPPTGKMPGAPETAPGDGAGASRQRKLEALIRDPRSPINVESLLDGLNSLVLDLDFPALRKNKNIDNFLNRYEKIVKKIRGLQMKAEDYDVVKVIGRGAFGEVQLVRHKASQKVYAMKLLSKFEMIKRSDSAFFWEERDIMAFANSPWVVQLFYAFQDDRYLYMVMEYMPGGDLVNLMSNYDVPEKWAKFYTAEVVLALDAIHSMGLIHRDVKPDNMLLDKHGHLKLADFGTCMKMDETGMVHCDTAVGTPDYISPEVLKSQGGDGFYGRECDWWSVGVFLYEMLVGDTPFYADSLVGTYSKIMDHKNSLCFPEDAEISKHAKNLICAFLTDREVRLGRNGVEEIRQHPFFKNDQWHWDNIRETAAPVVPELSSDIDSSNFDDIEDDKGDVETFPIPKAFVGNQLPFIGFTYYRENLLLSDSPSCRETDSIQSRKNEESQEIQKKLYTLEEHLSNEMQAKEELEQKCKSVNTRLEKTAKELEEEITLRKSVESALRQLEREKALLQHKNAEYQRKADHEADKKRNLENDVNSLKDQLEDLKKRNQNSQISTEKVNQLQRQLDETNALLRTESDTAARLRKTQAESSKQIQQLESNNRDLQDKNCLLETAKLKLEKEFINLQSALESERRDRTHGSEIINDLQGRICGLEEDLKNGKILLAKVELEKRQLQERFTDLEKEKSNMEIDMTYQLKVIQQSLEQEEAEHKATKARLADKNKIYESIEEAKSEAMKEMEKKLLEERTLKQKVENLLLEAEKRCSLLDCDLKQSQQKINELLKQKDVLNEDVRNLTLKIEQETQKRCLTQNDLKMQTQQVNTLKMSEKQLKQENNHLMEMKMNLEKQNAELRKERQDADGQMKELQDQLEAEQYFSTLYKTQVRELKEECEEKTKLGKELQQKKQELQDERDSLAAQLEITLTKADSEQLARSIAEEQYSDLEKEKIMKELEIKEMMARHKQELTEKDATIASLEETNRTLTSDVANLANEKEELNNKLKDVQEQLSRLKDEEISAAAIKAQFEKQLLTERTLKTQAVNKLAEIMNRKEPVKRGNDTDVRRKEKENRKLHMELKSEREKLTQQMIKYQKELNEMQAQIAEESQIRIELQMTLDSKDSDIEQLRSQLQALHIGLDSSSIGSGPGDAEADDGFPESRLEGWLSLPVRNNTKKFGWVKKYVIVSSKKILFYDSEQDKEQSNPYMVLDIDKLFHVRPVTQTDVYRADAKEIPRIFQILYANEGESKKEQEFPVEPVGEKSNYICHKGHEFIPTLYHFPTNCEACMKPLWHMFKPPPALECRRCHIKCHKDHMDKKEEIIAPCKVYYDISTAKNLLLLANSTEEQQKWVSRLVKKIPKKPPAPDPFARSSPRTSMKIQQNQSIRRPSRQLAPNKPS

Structure (SMILES) | IC50 (ROCK2) [nM] | further results
C[C@@H](N)[C@H]1CC[C@H](C(=O)Nc2ccncc2)CC1 [Example Y-27632] |  | blood pressure ([1]; control rats): only a minor effect on blood pressure; blood pressure ([1]; three rat models of hypertension): significantly decrease blood pressure; neointimal formation [2]: inhibited neointimal formation; ventricular hypertrophy, fibrosis and function (Dahl salt-sensitive rats): improve ventricular hypertrophy, fibrosis and function
O=S(=O)(c1cccc2cnccc12)N1CCCNCC1 [fasudil] |  | coronary constrictive remodeling [3]: promote a regression of coronary constrictive remodeling; coronary stenosis [3]: progressively reduce coronary stenosis; infarct size and neurologic deficit (rat stroke model): reduce both the infarct size and neurologic deficit
CCc1nc(N2CCN(C(C)c3ccc(F)c(OC)c3)C2=O)ccc1-c1cn[nH]c1 (single isomer, unassigned) [Example 271, 1-(6-ethyl-5-(1H-pyrazol-4-yl)pyridin-2-yl)-3-(1-(4-fluoro-3-methoxyphenyl)ethyl)imidazolidin-2-one] | 200 to 2000 | 
COc1cc(F)ccc1CN1CCN(c2ccc(-c3cn[nH]c3)c(OC)n2)C1=O [Example 251, 1-(4-fluoro-2-methoxybenzyl)-3-(6-methoxy-5-(1H-pyrazol-4-yl)pyridin-2-yl)imidazolidin-2-one] | 20.1 to 200 | 
CCc1nc(N2CCN(Cc3cccc(OCC4CC4)c3)C2=O)ccc1-c1cn[nH]c1 [Example 169, 1-(3-(cyclo-propyl-methoxy)-benzyl)-3-(6-ethyl-5-(1H-pyrazol-4-yl)pyridin-2-yl)-imidazolidin-2-one] | 20.1 to 200 | 
COc1ccc(F)c(CN2CCN(c3ccc(-c4ccncc4)c(OC)c3)C2=O)c1 [Example 58, 1-(2-fluoro-5-methoxybenzyl)-3-(3-methoxy-4-(pyridin-4-yl)phenyl)imidazolidin-2-one, TFA] | 200 to 2000 | 
COc1cccc(CN2CCN(c3ccc(-c4ncnc5[nH]ccc45)cc3)C2=O)c1 [Example 64, 1-(4-(7H-Pyrrolo[2,3-d]pyrimidin-4-yl)phenyl)-3-(3-methoxybenzyl)imidazolidin-2-one] | 200 to 2000 | 
COc1cc(F)cc(CN2CCN(c3cc(F)c(-c4cn[nH]c4)cc3F)C2=O)c1 [Example 448, 1-(2,5-difluoro-4-(1H-pyrazol-4-yl)phenyl)-3-(3-fluoro-5-methoxybenzyl)imidazolidin-2-one] | 20.1 to 200 | 
COc1cccc(C(C)N2C(=O)N(c3ccc(-c4cn[nH]c4)cc3)CC2(C)C)c1 (single isomer, unassigned) [Example 146, 1-(4-(1H-pyrazol-4-yl)phenyl)-3-(1-(3-methoxy-phenyl)-ethyl)-4,4-dimethyl-imidazolidin-2-one] | 20.1 to 200 | 
O=C1CN(Cc2ccccc2Cl)C(=O)N1c1ccc(-c2cn[nH]c2)cc1 [Example 82, 3-(4-(1H-pyrazol-4-yl)phenyl)-1-(2-chlorobenzyl)imidazolidine-2,4-dione] | 20.1 to 200 | 
O=C1CN(c2ccc(-c3cn[nH]c3)cc2)C(=O)N1Cc1cccc(F)c1 [Example 114, 1-(4-(1H-pyrazol-4-yl)phenyl)-3-(3-fluoro-benzyl)imidazolidine-2,4-dione] | 20.1 to 200 | 
Cc1nc(N2CCN(Cc3ccc(F)c(OCC4CC4)c3)C2=O)ccc1-c1cn[nH]c1 [Example 210, 1-(3-(cyclopropylmethoxy)-4-fluorobenzyl)-3-(6-methyl-5-(1H-pyrazol-4-yl)pyridin-2-yl)imidazolidin-2-one] | 20.1 to 200 | 
COc1cccc(C(C(=O)NCC2CC2)N2CCN(c3ccc(-c4cn[nH]c4)cc3)C2=O)c1 (single isomer, unassigned) [Example 297, 2-(3-(4-(1H-pyrazol-4-yl)phenyl)-2-oxoimidazolidin-1-yl)-N-(cyclopropylmethyl)-2-(3-methoxyphenyl)acetamide] | 200 to 2000 | 

More lines, main results first:

IC50 (ROCK2) [nM] | Structure (SMILES) | further results
2.1 to 20 | O=C1N(c2ccc(-c3cn[nH]c3)cc2)CCN1C(CO)c1ccccc1 (single isomer, unassigned) [Example 163, 1-(4-(1H-pyrazol-4-yl)phenyl)-3-(2-hydroxy-1-phenylethyl) imidazolidin-2-one] | 
2.1 to 20 | COc1cccc(C(C)N2C(=O)N(c3ccc(-c4cn[nH]c4)cc3)C[C@@H]2CO)c1 (single isomer, unassigned) [Example 132] | 
20.1 to 200 | O=C1N(Cc2ccccc2)CC(CO)N1c1ccc(-c2cn[nH]c2)cc1 (stereo not drawn) [Example 30, 3-(4-(1H-Pyrazol-4-yl)phenyl)-1-benzyl-4-(hydroxymethyl)imidazolidin-2-one] | 
20.1 to 200 | O=C1CN(c2ccc(-c3cn[nH]c3)cc2)C(=O)N1Cc1ccccc1 [Example 110, 1-(4-(1H-pyrazol-4-yl)phenyl)-3-benzyl-imidazolidine-2,4-dione] | 
20.1 to 200 | O=C1N(Cc2ccccc2)CCN1c1ccc(-c2ccncc2)cc1 [Example 55, 1-benzyl-3-(4-(pyridin-4-yl)phenyl)imidazolidin-2-one, TFA] | 
2.1 to 20 | O=C1N(c2ccc(-c3cn[nH]c3)cc2)CC(CO)N1Cc1ccccc1 (stereo not drawn) [Example 38, 1-(4-(1H-Pyrazol-4-yl)phenyl)-3-benzyl-4-(hydroxymethyl)imidazolidin-2-one] | 
2.1 to 20 | COc1ccc(F)cc1CN1CCN(c2ccc(-c3cn[nH]c3)c(F)c2)C1=O [Example 424, 1-(5-fluoro-2-methoxybenzyl)-3-(3-fluoro-4-(1H-pyrazol-4-yl)phenyl)imidazolidin-2-one] | 
2.1 to 20 | COc1cc(CN2CCN(c3ccc(-c4cn[nH]c4)c(C)c3)C2=O)ccc1F [Example 282, 1-(4-fluoro-3-methoxybenzyl)-3-(3-methyl-4-(1H-pyrazol-4-yl)-phenyl)imidazolidin-2-one] | 
< 2 | COc1cc(F)cc(CN2CCN(c3ccc(-c4cn[nH]c4)c(OC)n3)C2=O)c1 [Example 467, 1-(3-fluoro-5-methoxybenzyl)-3-(6-methoxy-5-(1H-pyrazol-4-yl)pyridin-2-yl)imidazolidin-2-one] | 
